In one assay the test system is Mycobacterium tuberculosis variant bovis. The experiment in a line: Antimycobacterial activity against Mycobacterium bovis BCG ATCC 35734 assessed as ATP leakage by measuring extracellular ATP at 2 times MIC measured at 1 hr post dose by luciferase reporter gene assay. Format: functional, Mycobacterium tuberculosis variant bovis BCG. (In a reporter assay the amount or activity of a reporter protein is the signal.)
As to `CCCN(CCC)CCCCOc1cc2oc3cc(OCCCCN(CCC)CCC)c(OC)c(CC=C(C)C)c3c(=O)c2c(O)c1CC=C(C)C`, the Activity is on record as 10.1%.

The test system is the same in a further assay. The experiment in a line: Antimycobacterial activity against Mycobacterium bovis BCG ATCC 35734 assessed as ATP leakage by measuring intracellular ATP at 4 times MIC measured at 3 hrs post dose by luciferase reporter gene assay. It counts as functional, Mycobacterium tuberculosis variant bovis BCG.
As for `CCCN(CCC)CCCCOc1cc2oc3cc(OCCCCN(CCC)CCC)c(OC)c(CC=C(C)C)c3c(=O)c2c(O)c1CC=C(C)C`, the Activity is 57.9%.

Another assay has the same test system. Briefly: Antimycobacterial activity against Mycobacterium bovis BCG ATCC 35734 assessed as ATP leakage by measuring intracellular ATP at 0.5 times MIC measured at 6 hrs post dose by luciferase reporter gene assay. It counts as functional, Mycobacterium tuberculosis variant bovis BCG.
`CCCN(CCC)CCCCOc1cc2oc3cc(OCCCCN(CCC)CCC)c(OC)c(CC=C(C)C)c3c(=O)c2c(O)c1CC=C(C)C`: the Activity is reported as 72%.

The test system is the same in a further assay. Briefly: Antimycobacterial activity against Mycobacterium bovis BCG ATCC 35734 assessed as ATP leakage by measuring extracellular ATP at 0.5 times MIC measured at 9 hrs post dose by luciferase reporter gene assay. Format: functional, Mycobacterium tuberculosis variant bovis BCG.
Turning to `CCCN(CCC)CCCCOc1cc2oc3cc(OCCCCN(CCC)CCC)c(OC)c(CC=C(C)C)c3c(=O)c2c(O)c1CC=C(C)C`, the Activity was found to be 25.4%.

For a further assay the test system is unchanged. The experiment in a line: Antimycobacterial activity against Mycobacterium bovis BCG ATCC 35734 assessed as ATP leakage by measuring extracellular ATP at 0.5 times MIC measured at 24 hrs post dose by luciferase reporter gene assay. It counts as functional, Mycobacterium tuberculosis variant bovis BCG.
Take `CCCN(CCC)CCCCOc1cc2oc3cc(OCCCCN(CCC)CCC)c(OC)c(CC=C(C)C)c3c(=O)c2c(O)c1CC=C(C)C`: the Activity worked out at 15.6%.

The next assay has the same test system. Briefly: Antimycobacterial activity against Mycobacterium bovis BCG ATCC 35734 assessed as ATP leakage by measuring intracellular ATP at 2 times MIC measured at 24 hrs post dose by luciferase reporter gene assay. Format: functional, Mycobacterium tuberculosis variant bovis BCG.
Consider `CCCN(CCC)CCCCOc1cc2oc3cc(OCCCCN(CCC)CCC)c(OC)c(CC=C(C)C)c3c(=O)c2c(O)c1CC=C(C)C`, for which the Activity is given as 29.5%.

For a further assay the test system is unchanged. The experiment in a line: Antimycobacterial activity against Mycobacterium bovis BCG ATCC 35734 assessed as ATP leakage by measuring intracellular ATP at 4 times MIC measured at 6 hrs post dose by luciferase reporter gene assay. It counts as functional, Mycobacterium tuberculosis variant bovis BCG.
Take `CCCN(CCC)CCCCOc1cc2oc3cc(OCCCCN(CCC)CCC)c(OC)c(CC=C(C)C)c3c(=O)c2c(O)c1CC=C(C)C`: the Activity is listed as 30.3%.

For a further assay the test system is unchanged. Briefly: Antimycobacterial activity against Mycobacterium bovis BCG ATCC 35734 assessed as ATP leakage by measuring extracellular ATP at 1 MIC measured immediatey after addition of compounds by luciferase reporter gene assay. Format: functional, Mycobacterium tuberculosis variant bovis BCG.
Take `CCCN(CCC)CCCCOc1cc2oc3cc(OCCCCN(CCC)CCC)c(OC)c(CC=C(C)C)c3c(=O)c2c(O)c1CC=C(C)C`: the Activity was determined as 2.5%.

The test system is the same in another assay. The experiment in a line: Antimycobacterial activity against Mycobacterium bovis BCG ATCC 35734 assessed as ATP leakage by measuring intracellular ATP at 1 MIC measured at 6 hrs post dose by luciferase reporter gene assay. Format: functional, Mycobacterium tuberculosis variant bovis BCG.
Take `CCCN(CCC)CCCCOc1cc2oc3cc(OCCCCN(CCC)CCC)c(OC)c(CC=C(C)C)c3c(=O)c2c(O)c1CC=C(C)C`: the Activity was determined as 69.6%.

For another assay the test system is unchanged. Briefly: Antimycobacterial activity against Mycobacterium bovis BCG ATCC 35734 assessed as ATP leakage by measuring extracellular ATP at 2 times MIC measured immediatey after addition of compounds by luciferase reporter gene assay. Format: functional, Mycobacterium tuberculosis variant bovis BCG.
Take `CCCN(CCC)CCCCOc1cc2oc3cc(OCCCCN(CCC)CCC)c(OC)c(CC=C(C)C)c3c(=O)c2c(O)c1CC=C(C)C`: the Activity is listed as 2.2%.

The test system is the same in another assay. The experiment in a line: Antimycobacterial activity against Mycobacterium bovis BCG ATCC 35734 assessed as ATP leakage by measuring extracellular ATP at 4 times MIC measured at 9 hrs post dose by luciferase reporter gene assay. It counts as functional, Mycobacterium tuberculosis variant bovis BCG.
For `CCCN(CCC)CCCCOc1cc2oc3cc(OCCCCN(CCC)CCC)c(OC)c(CC=C(C)C)c3c(=O)c2c(O)c1CC=C(C)C`, the Activity came out at 84%.

The test system is the same in the next assay. The experiment in a line: Antimycobacterial activity against Mycobacterium bovis BCG ATCC 35734 assessed as ATP leakage by measuring extracellular ATP at 2 times MIC measured at 6 hrs post dose by luciferase reporter gene assay. It counts as functional, Mycobacterium tuberculosis variant bovis BCG.
As to `CCCN(CCC)CCCCOc1cc2oc3cc(OCCCCN(CCC)CCC)c(OC)c(CC=C(C)C)c3c(=O)c2c(O)c1CC=C(C)C`, the Activity amounted to 63.2%.

The test system is the same in the next assay. The experiment in a line: Antimycobacterial activity against Mycobacterium bovis BCG ATCC 35734 assessed as ATP leakage by measuring intracellular ATP at 1 MIC measured at 9 hrs post dose by luciferase reporter gene assay. Format: functional, Mycobacterium tuberculosis variant bovis BCG.
Regarding `CCCN(CCC)CCCCOc1cc2oc3cc(OCCCCN(CCC)CCC)c(OC)c(CC=C(C)C)c3c(=O)c2c(O)c1CC=C(C)C`, the Activity is on record as 51.5%.

For a further assay the test system is unchanged. Briefly: Antimycobacterial activity against Mycobacterium bovis BCG ATCC 35734 assessed as ATP leakage by measuring extracellular ATP at 2 times MIC measured at 3 hrs post dose by luciferase reporter gene assay. It counts as functional, Mycobacterium tuberculosis variant bovis BCG.
For the compound `CCCN(CCC)CCCCOc1cc2oc3cc(OCCCCN(CCC)CCC)c(OC)c(CC=C(C)C)c3c(=O)c2c(O)c1CC=C(C)C`, the Activity came out at 44.2%.

Another assay has the same test system. The experiment in a line: Antimycobacterial activity against Mycobacterium bovis BCG ATCC 35734 assessed as ATP leakage by measuring extracellular ATP at 1 MIC measured at 6 hrs post dose by luciferase reporter gene assay. Format: functional, Mycobacterium tuberculosis variant bovis BCG.
As to `CCCN(CCC)CCCCOc1cc2oc3cc(OCCCCN(CCC)CCC)c(OC)c(CC=C(C)C)c3c(=O)c2c(O)c1CC=C(C)C`, the Activity is reported as 30.4%.

A further assay has the same test system. Briefly: Antimycobacterial activity against Mycobacterium bovis BCG ATCC 35734 assessed as ATP leakage by measuring extracellular ATP at 4 times MIC measured at 24 hrs post dose by luciferase reporter gene assay. It counts as functional, Mycobacterium tuberculosis variant bovis BCG.
For the compound `CCCN(CCC)CCCCOc1cc2oc3cc(OCCCCN(CCC)CCC)c(OC)c(CC=C(C)C)c3c(=O)c2c(O)c1CC=C(C)C`, the Activity was 85.2%.

Values taken from ChEMBL document CHEMBL3872220, “Amphiphilic xanthones as a potent chemical entity of anti-mycobacterial agents with membrane-targeting properties” (Eur J Med Chem, 2016).
